One data set relates to ERK5 protein. As to the kind of experiment: Immunoblot of ERK5 protein in differentiating adipocytes. The data set is classed as cell-based, human. As to conditions: differentiating adipocytes 7- and 10-days post-differentiation, 250 nM. The procedure:
When miRNAs have effects on the expression of downstream genes or proteins encoded by these genes, it is advantageous to measure the protein levels of those gene products, and to do this, western blot (immunoblot) analysis is employed. Immunoblot analysis is carried out using standard methods. Briefly, preadipocytes and differentiating adipocytes were cultured as described previously, and differentiating adipocytes are sampled at several timepoints after stimulation of differentiation. Cells were treated with 250 nM oligomeric compounds and harvested 16-20 h after oligomeric compound treatment. Cells were washed, lysed in RIPA buffer with protease inhibitor cocktail (Roche Diagnostics Corporation, Indianapolis, Ind.), suspended in Laemmli buffer (20 ul/well), boiled for 5 minutes and loaded onto either an 8% SDS-PAGE or a 4-20% gradient SDS-PAGE gel. Gels are run for approximately 1.5 hours at 150 V, and transferred to PVDF membrane for western blotting. […] Bands are visualized and quantitated using a PHOSPHORIMAGER™ (Molecular Dynamics, Sunnyvale Calif.) or the ChemiDoc™ system (Bio-Rad Laboratories, Inc., Hercules, Calif.). Thus, the effects of treatment of many cell types (including, but not limited to, preadipocytes, differentiating adipocytes, HeLa, T-24 and A549 cells) with oligomeric compounds of the present invention on the levels of gene expression products can be assessed. […]

Another data set has as its system A549 cells. As to the kind of experiment: Cell cycle assay in A549 cells. The data set is classed as cell-based, human. As to conditions: A549 cells, 24 hours, relative to the untreated control cells in that phase. The procedure:
In accordance with the present invention, certain oligomeric compounds targeting miRNAs were selected for dose response studies. Using the cell cycle assay described above, the cell cycle profiles of HeLa or A549 cells treated with varying concentrations of oligomeric compounds of the present invention were assessed.
Concomittent decreases in the percentage of cells in G1-phase of the cell cycle and increases in the percentage of hypodiploid (subG1) cells were also observed.
In a further study, A549 cells were treated with 25-, 50-, 100- or 150 nM of the oligomeric compounds ISIS Numbers 338637 (SEQ ID NO: 464) targeted against mir-96, and ISIS 338769 (SEQ ID NO: 596) targeted against mir-130b, ISIS 338836 (SEQ ID NO: 663) targeted against mir-23a, and ISIS 340350 (SEQ ID NO: 855) targeted against mir-95 (Mourelatos). Cells treated with increasing concentrations of oligomeric compounds were compared to untreated cells, to assess the dose-responsiveness of the observed delay or arrest. The random-mer ISIS 29848 was used as a negative control. Cells were prepared for flow cytometry 24-hours after oligonucleotide treatment. Results of these dose response studies are shown in Table 34, where data are expressed as percentage of cells in each phase relative to the untreated control cells in that phase.

As to “TGAGCTACAGTGCTTCATCTCA [ISIS 327901] (chemistry not given here) [uniform 2′-MOE PS; targets mir-143]”, the “ERK5 protein levels vs pre-adipocytes or untreated differentiating adipocytes” value in the data set on ERK5 protein is given as 2-2.5 fold.

For the substance “340350 (antisense TGCTCAATAAATACCCGTTGAA; all 2'-MOE, all phosphorothioate, methylation of C not given here) [compound 340350]”, in the data set on A549 cells (25 nM), the “% cells in cell cycle phase: G1” value was found to be 102%, the “% cells in cell cycle phase: G2/M” value was found to be 95%, the “% cells in cell cycle phase: S” value came out at 100% and the “% cells in cell cycle phase: aneuploid” value came to 120%. Further, in the data set with A549 cells (25 nM), the “% cells in cell cycle phase: subG1” value was 91%. For the same substance, in the data set with A549 cells (50 nM), the “% cells in cell cycle phase: G1” value came to 128%, the “% cells in cell cycle phase: G2/M” value worked out at 126%, the “% cells in cell cycle phase: S” value came to 67% and the “% cells in cell cycle phase: aneuploid” value came to 80%. Further, the “% cells in cell cycle phase: subG1” value in the data set with A549 cells (50 nM) amounted to 158%. Also, in the data set on A549 cells (100 nM), the “% cells in cell cycle phase: G1” value turned out to be 125%, the “% cells in cell cycle phase: G2/M” value stood at 155%, the “% cells in cell cycle phase: S” value is listed as 60% and the “% cells in cell cycle phase: aneuploid” value was found to be 107%. The “% cells in cell cycle phase: subG1” value with A549 cells (100 nM) is recorded as 267%. For the same substance, in the data set with A549 cells (150 nM), the “% cells in cell cycle phase: G1” value came out at 128%, the “% cells in cell cycle phase: G2/M” value is 211%, the “% cells in cell cycle phase: S” value is 40% and the “% cells in cell cycle phase: aneuploid” value turned out to be 108%. Further, the “% cells in cell cycle phase: subG1” value in the data set with A549 cells (150 nM) is 402%.

(Values after patent US8178506B2, “Oligomeric compounds and compositions for use in modulation of small non-coding RNAs” (Regulus Therapeutics Inc., priority 2003, dated 2012).)
